Consider twelve molecules from US6472227B1, “Barbiturate assay, tracers, immunogens, antibodies and kit” (Abbott Laboratories, priority 1986, dated 2002).

For data set [1], the system named is antibodies raised against an immunogen having the structure shown in FIG. 29. The data set is described as follows: Fluorescence polarization immunoassay cross-reactivity, tracer of FIG. 31. It is filed as binding, sheep. As to conditions: tracer FIG. 31. The protocol: (§1) The antibodies of the present invention are prepared by eliciting a response in sheep to the immunogens described supra. The immunogen is administered to animals or to in vitro cultures of immunocompetent cells by a series of innoculations, in a manner well known to those skilled in the art.
In general terms: Polarisation of emitted light reports the rotation of a fluorescent probe.

The test system is the same in data set [2]. The data set is described as follows: Fluorescence polarization immunoassay cross-reactivity in drug-free normal human urine, tracer of FIG. 30. It is filed as binding, sheep. As to conditions: for % CR / Conc. Found: tracer FIG. 30; for amount of the test compound found in the resulting human urine: 200 ng/mL added to drug-free urine, secobarbital standard. The method, then: as §1
(§2) The tracer formulation presently preferred is 150 nanomolar tracer in: 0.1 molar phosphate buffer at pH 6.2; 5% sodium 5-sulfosalicylate; 0.1% sodium azide; and 0.01% bovine gamma-globulin. The antiserum formulation comprises sheep serum diluted with: 0.1 molar tris buffer at pH 7.5; 0.1% sodium azide; 0.1% bovine gamma-globulin; and 2% ethylene glycol (volume/volume). The dilution buffer comprises: 0.1 molar sodium phosphate at pH 7.5; 0.1% sodium azide; and 0.01% bovine gamma-globulin. The pretreatment solution comprises: 0.01% bovine gamma-globulin; 0.1 molar tris buffer at pH 7.5; 0.1% sodium azide; and 10 mg/mL riboflavin binding protein.
(§3) A minimum of fifty microliters of urine is required. The calibrators, controls, or unknown samples are pipetted directly into the sample well of the TDx® or ADx® sample cartridge. […] The assay procedure from this point is fully automated.
(§4) If a manual assay is being performed, then the sample is mixed with the pretreatment solution in dilution buffer and a background reading is taken. The tracer and antibody are then mixed into the test solution. After incubation, a fluorescence polarization reading is taken.
(§5) The net fluorescence polarization value of each calibrator, control or sample is determined and is printed on the output tape of an instrument such as the Abbott TDx® Analyzer. […] The concentration of each control or sample is read off the stored calibration curve and printed on the output tape.
Cross-reactivity was tested by the method of the present invention for the commonly-used barbiturates. In each case, compounds were assayed on the Abbott Laboratories+ TDx® Clinical Analyzer or the ADx® Drugs of Abuse System after adding a known quantity (200 ng/mL) of the barbiturate test compound to drug-free normal human urine.
(§6) The five columns in Tables 4(a) and 4(b) indicate the same information as is described above for Table 3(a).

The subject of data set [3] is antibodies raised against an immunogen having the structure shown in FIG. 28. Kind of data set: Fluorescence polarization immunoassay cross-reactivity in drug-free normal human urine, tracer of FIG. 5. As to conditions: for amount of the test compound found in the resulting human urine: 200 ng/mL added to drug-free urine, secobarbital standard. It counts as binding, sheep. The protocol:
as §1, §2, §3, §4, §5
Cross-reactivity was tested by the method of the present invention for the commonly-used barbiturates. […]
The five columns indicate the following information:
In other words, when 200 ng of secobarbital were added to drug-free normal human urine, approximately 200 ng of secobarbital were detected in the resulting urine sample. Thus, the closer the factor is to 1.0, the more accurate the assay is with respect to the particular test compound analyzed.
The percent cross-reactivity value presented in column five was obtained by the following mathematical formula: [formula]
as §6

A short description of data set [4]: Long-term tracer stability: polarization and net intensity after storage (Tables 2(a), 2(b)). It is filed as physicochemical. An excerpt: The data presented in Tables 2(a) and 2(b) below indicate that a tracer which has an ethylene (—CH═CH—) linkage group between the fluorescein and the ligand component of the tracer remains stable at varied temperatures for a period of at least one and one half years. While a tracer having the chemical structure shown in FIG. 5 was employed to generate the data presented in Table 2(a), a tracer having the chemical structure shown in FIG. 30 was employed to generate the data presented in Table 2(b).

Setting [5] is: 200 ng/mL added, listed as secobarbital.

As to `C=CCC1(c2ccccc2)C(=O)NC(=O)NC1=O` [Alphenal], the “% CR” value in data set [1] (Conc. Added 1200 ng/mL) is listed as >167%. Further, in data set [2] (Conc. Added 1200 ng/mL), the “% CR” value turned out to be 94% and the “Conc. Found” value stood at 1130 ng/mL.
For the molecule `C=CCC1(C(C)CC)C(=O)NC(=O)NC1=O` (stereo not drawn) [Talbutal], the “factor which overestimates or underestimates the compound assayed for” value in data set [3] (200 ng/mL added) was 0.90; in data set [2] (200 ng/mL added), 2.65. In addition, the values for the percent cross reactivity in data set [3] (200 ng/mL added) and in data set [2] (200 ng/mL added) were 90% and 265%, respectively. Moreover, the “amount of the test compound found in the resulting human urine” value (“amount … in the resulting human urine” for short) in data set [3] was found to be 180 ng/mL; in data set [2] it was 531 ng/mL. Further, the “% CR” value in data set [1] (Conc. Added 1200 ng/mL) and in data set [2] (Conc. Added 1200 ng/mL) was >167% each time.
As for `C=CCC1(C(C)CCC)C(=O)NC(=O)NC1=O` (stereo not drawn) [Secobarbital], the “factor which overestimates or underestimates the compound assayed for” value is 1.00 in data set [3] (200 ng/mL added), 1.0 in data set [3] (setting [5]) and 1.00 in data set [2] (200 ng/mL added). In addition, the percent cross reactivity in data set [3] (200 ng/mL added), in data set [3] (setting [5]) and in data set [2] (200 ng/mL added) was 100% throughout. Besides, the “amount … in the resulting human urine” value in data set [3] and in data set [2] was 200 ng/mL each time.
With `C=CCC1(C2C=CCC2)C(=O)NC(=O)NC1=O` (stereo not drawn) [Cyclopentobarbital], the “% CR” value in data set [1] (Conc. Added 1200 ng/mL) and in data set [2] (Conc. Added 1200 ng/mL) was >167% throughout.
As for `O=C1NC(=O)C(c2ccccc2)(c2ccc(O)cc2)N1` (stereo not drawn) [p-Hydroxy phenytoin], the “amount of the test compound found” value in data set [3] (1 μg/mL added) is on record as “ND (None detected: Concentration less than the sensitivity of the assay (60 ng/mL))”; in data set [3] (10 μg/mL added), 340 ng/mL; in data set [3] (100 μg/mL added), 1200 ng/mL; in data set [2] (10 μg/mL added), “ND (None detected: Concentration less than the sensitivity of the assay (60 ng/mL))”; in data set [2] (100 μg/mL added), 101 ng/mL; in data set [2] (500 μg/mL added) it was 218 ng/mL. Also, the factor came to 0.034 in data set [3] (10 μg/mL added), 0.012 in data set [3] (100 μg/mL added), 0.00010 in data set [2] (100 μg/mL added) and 0.00004 in data set [2] (500 μg/mL added). Also, the percent cross reactivity in data set [3] (10 μg/mL added) was determined as 3.40%; in data set [3] (100 μg/mL added), 1.20%; in data set [2] (100 μg/mL added) it was 0.10%; in data set [2] (500 μg/mL added) it was 0.04%. The results for the “% CR” value in data set [1] (Conc. Added 500 (ng/mL)) and in data set [2] (Conc. Added 500 (ng/mL)) were 0.058% and 0.001%, respectively. Further, the “Conc. Found” value in data set [1] (Conc. Added 500 (ng/mL)) worked out at 290 ng/mL; in data set [2] (Conc. Added 500 (ng/mL)) it was 200 ng/mL.
For `CCCC(C)C1(C/C=C/C(=O)NCc2c(O)ccc3c2Oc2cc(O)ccc2C32OC(=O)c3ccccc32)C(=O)NC(=O)NC1=O` (stereo not drawn) [FIG. 5], the “Average Net Intensity” value in data set [4] (1 Year, 2-8 °C) was 3161-4615; in data set [4] (18 Months, 2-8 °C) it was 3304-4798; in data set [4] (Day 0, 2-8 °C) it was 3400-5000; in data set [4] (Day 1, 2-8 °C) it was 3290-4733; in data set [4] (Day 2, 2-8 °C), 3200-4670; in data set [4] (Day 3, 2-8 °C), 3367-4895. Moreover, the “Average Net Intensity” value was 3400-4910 in data set [4] (Day 3, 37 °C); 3400-4950 in data set [4] (Day 3, 45 °C); 3395-4965 in data set [4] (Day 3, −20 °C); 3282-4777 in data set [4] (Month 2, 2-8 °C); 3210-4775 in data set [4] (Month 4, 2-8 °C); 3150-4677 in data set [4] (Month 8, 2-8 °C). Also, the “Average Net Intensity” value in data set [4] (Week 1, 2-8 °C) is recorded as 3400-4900; in data set [4] (Week 1, 37 °C), 3500-5000; in data set [4] (Week 1, 45 °C), 3550-5200; in data set [4] (Week 1, −20 °C), 3300-4800; in data set [4] (Week 2, 2-8 °C), 3100-4590; in data set [4] (Week 2, −20 °C), 3180-4635. The “Average Net Intensity” value in data set [4] (Week 4, 2-8 °C) is on record as 3395-4988. Besides, the Polarization in data set [4] (1 Year, 2-8 °C) was 204.85; in data set [4] (18 Months, 2-8 °C) it was 199.29; in data set [4] (Day 0, 2-8 °C), 209.17; in data set [4] (Day 1, 2-8 °C), 206.61; in data set [4] (Day 2, 2-8 °C), 207.07; in data set [4] (Day 3, 2-8 °C), 208.05. In addition, the Polarization in data set [4] (Day 3, 37 °C) worked out at 207.60; in data set [4] (Day 3, 45 °C), 205.51; in data set [4] (Day 3, −20 °C) it was 207.38; in data set [4] (Month 2, 2-8 °C) it was 207.21; in data set [4] (Month 4, 2-8 °C), 205.59; in data set [4] (Month 8, 2-8 °C) it was 206.85. The Polarization in data set [4] (Week 1, 2-8 °C) is listed as 208.25; in data set [4] (Week 1, 37 °C), 202.78; in data set [4] (Week 1, 45 °C), 200.11; in data set [4] (Week 1, −20 °C) it was 208.46; in data set [4] (Week 2, 2-8 °C), 210.41; in data set [4] (Week 2, −20 °C), 208.85. In data set [4] (Week 4, 2-8 °C), this molecule registered a Polarization of 210.35.
As to `CC(C(=O)O)c1ccc(CC(C)(C)O)cc1` (stereo not drawn) [OH-Ibuprofen], the “amount of the test compound found” value in data set [3] (1 μg/mL added) is “ND (None detected: Concentration less than the sensitivity of the assay (60 ng/mL))”; in data set [3] (10 μg/mL added), “ND (None detected: Concentration less than the sensitivity of the assay (60 ng/mL))”; in data set [3] (100 μg/mL added), “ND (None detected: Concentration less than the sensitivity of the assay (60 ng/mL))”; in data set [3] (1000 μg/mL added) it was 60 ng/mL. Further, the factor in data set [3] (1000 μg/mL added) is given as 0.00006. For the same molecule, the percent cross reactivity in data set [3] (1000 μg/mL added) is 0.006%.
For `CCC(C)C1(CC)C(=O)NC(=O)NC1=O` (stereo not drawn) [Butabarbital], the “% CR” value in data set [1] (Conc. Added 1200 ng/mL) and in data set [2] (Conc. Added 1200 ng/mL) was >167% in each case. Besides, in data set [2] (200 ng/mL added), the “factor which overestimates or underestimates the compound assayed for” value is 2.24. Also, the percent cross reactivity in data set [2] (200 ng/mL added) came out at 224%. Further, the “amount … in the resulting human urine” value in data set [2] is 489 ng/mL.
For the molecule `CCC1(c2ccc(N)cc2)CCC(=O)NC1=O` (stereo not drawn) [Aminoglutethimide], in data set [2] (1 μg/mL added), the “amount of the test compound found” value is reported as “ND (None detected: Concentration less than the sensitivity of the assay (60 ng/mL))”. Moreover, in data set [2] (10 μg/mL added), the “amount of the test compound found” value worked out at 117 ng/mL, the factor stood at 0.00117 and the percent cross reactivity is 1.17%. Further, in data set [2] (100 μg/mL added), the “amount of the test compound found” value was 412 ng/mL, the factor came to 0.00041 and the percent cross reactivity was 0.41%.
Regarding Butobarbital, in data set [2] (Conc. Added 1200 ng/mL), the “% CR” value turned out to be 48% and the “Conc. Found” value came to 580 ng/mL.
`C=CCC1(CC(=C)Br)C(=O)NC(=O)NC1=O` [Brallobarbital]: in data set [1] (Conc. Added 1200 ng/mL), the “% CR” value stood at 159% and the “Conc. Found” value is given as 1910 ng/mL. In addition, in data set [2] (200 ng/mL added), the “factor which overestimates or underestimates the compound assayed for” value is listed as 0.94 and the percent cross reactivity is 94%. In addition, in data set [2], the “amount … in the resulting human urine” value was found to be 188 ng/mL. Moreover, in data set [2] (Conc. Added 1200 ng/mL), the “% CR” value is reported as 117% and the “Conc. Found” value was found to be 1400 ng/mL.
With `C=CCC1(C(C)C)C(=O)NC(=O)NC1=O` [Aprobarbital], in data set [1] (Conc. Added 1200 ng/mL), the “% CR” value stood at 139% and the “Conc. Found” value is on record as 1670 ng/mL. Moreover, in data set [2] (200 ng/mL added), the “factor which overestimates or underestimates the compound assayed for” value is listed as 0.62 and the percent cross reactivity came to 62%. Moreover, the “amount … in the resulting human urine” value in data set [2] is 123 ng/mL. Further, in data set [2] (Conc. Added 1200 ng/mL), the “% CR” value came out at 77% and the “Conc. Found” value was 920 ng/mL.
